The values below are quoted from earlier work in US20250051594A1, “INKJET INK” (KYOCERA DOCUMENT SOLUTIONS INC., priority 2023, published 2025).

Each structure is given as a SMILES string.

The conditions of the first data set: octanol/water partition coefficient of the organic solvent.
Take `OCCOCCOCCO` [Triethylene glycol]: the LogKow is on record as −1.75.
Consider `CCCCOCCOCC` [EBEE, ethylene glycol butylethylether], for which the LogKow is recorded as −1.88.
For `OCCCO` [1,3-propanediol], the LogKow is recorded as −1.04.
Regarding `CC(O)CO` (centres unmarked) [PG, propylene glycol], the LogKow is listed as −0.92.
`COCCOCCOCCO` [Triethylene glycol monomethylether]: the LogKow is listed as −1.46.
In the case of `CCCOC(C)COC(C)CO` (centres unmarked) [Dipropylene glycol monopropylether], the LogKow is given as −1.53.
On to `COCCOCCO` [Diethylene glycol monomethylether], for which the LogKow was −1.18.
With `OCC(O)CO` [Glycerin], the LogKow is given as −1.76.
As for `CCCCOCCOCCOC` [Diethylene glycolbutylmethylether], the LogKow is −1.20.
Consider `OCCOCCO` [Diethylene glycol], for which the LogKow is listed as −1.47.
For `COC(C)COC(C)COC(C)CO` (centres unmarked) [Tripropylene glycol monomethylether], the LogKow is −1.24.
Turning to `CCCCOCC(C)O` (centres unmarked) [Propylene glycol monobutylether], the LogKow is given as −1.36.

Staying with this data set, now noted: octanol/water partition coefficient of the organic solvent; listed as ethylene glycolbutylethylether.
Take `CCCCOCCOCC` [EBEE, ethylene glycol butylethylether]: the LogKow result is “lower than −1.80”.

Staying with this data set, now noted: octanol/water partition coefficient of the organic solvent; listed as propylene glycol.
Take `CC(O)CO` (centres unmarked) [PG, propylene glycol]: the LogKow result is listed as “higher than −1.00”.
